Patent US10654866B2, “Selective estrogen receptor degraders” (Eli Lilly and Company, priority 2018, dated 2020)
Read-outs that look alike come from different tables or passages of the source.

Key:
ERα (Y537S mutant) = ERα (Y537S mutant) (Homo sapiens (Human), UniProt P03372, Y537S); assay: ERα (Y537S mutant) competition binding assay; conditions: 3H-estradiol competition; Ki from IC50 by Cheng-Prusoff
Experimental: (§1) Add the test compound at 10 different concentrations ranging from 10,000 nM to 0.5 nM, and determine nonspecific binding in the presence of 1 μM of 1713 estradiol. Incubate the binding reaction (140 μL) for 4 hours at room temperature, and then add cold dextran-charcoal buffer (70 μL) (containing per 50 mL of assay buffer, 0.75 g of charcoal and 0.25 g of dextran) to each reaction. Mix the plates for 8 minutes on an orbital shaker at 4° C. and then centrifuge at 3000 rpm at 4° C. for 10 minutes. Transfer an aliquot (120 μL) of the mixture to another 96-well, white flat bottom plate (Costar) and add Perkin Elmer Optiphase Supermix scintillation fluid (175 μL) to each well. Seal the plates and shake vigorously on an orbital shaker. After an incubation of 2.5 hours, read the plates in a Wallac Microbeta counter. […] Convert the IC50 values for the compound to Ki using Cheng-Prusoff equation.

ERα (wild type) = ERα (wild type) (Homo sapiens (Human), UniProt P03372); assay: ERα (wild type) competition binding assay; conditions: 3H-estradiol competition; Ki from IC50 by Cheng-Prusoff
Sequence of ERα (wild type) (P03372 whole entry): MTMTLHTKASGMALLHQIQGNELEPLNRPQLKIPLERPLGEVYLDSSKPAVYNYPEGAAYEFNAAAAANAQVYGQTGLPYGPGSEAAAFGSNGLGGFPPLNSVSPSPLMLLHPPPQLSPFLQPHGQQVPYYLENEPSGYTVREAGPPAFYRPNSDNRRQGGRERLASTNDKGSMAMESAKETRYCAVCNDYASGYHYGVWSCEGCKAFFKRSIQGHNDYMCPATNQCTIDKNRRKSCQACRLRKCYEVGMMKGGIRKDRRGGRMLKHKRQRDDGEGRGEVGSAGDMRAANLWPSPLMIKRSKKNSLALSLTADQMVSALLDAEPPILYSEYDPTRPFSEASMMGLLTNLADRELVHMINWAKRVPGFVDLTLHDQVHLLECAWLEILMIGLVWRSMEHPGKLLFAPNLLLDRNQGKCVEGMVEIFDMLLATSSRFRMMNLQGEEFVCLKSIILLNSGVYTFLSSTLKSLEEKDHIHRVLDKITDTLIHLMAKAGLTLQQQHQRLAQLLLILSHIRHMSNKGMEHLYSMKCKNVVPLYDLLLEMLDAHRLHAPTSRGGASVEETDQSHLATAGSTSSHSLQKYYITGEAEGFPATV
Experimental: as §1

[1] = tested on: MCF7 ESR1 Y537N mutant cells; assay: Cell proliferation assay in MCF7-ESR1 Y537N-682; format: cell-based, human; conditions: seven days, read-out: Relative IC50 (μM) MCF7 ESR1 Y537N mutant cells
Experimental: (§2) Seed MCF7 (purchased from ATCC HTB-22) cells at a density of 2,000 cells per well in DMEM phenol red free media 10% FBS (20 μL volume) (charcoal stripped) into a clear bottom 384-well cell culture plate. Plate MCF7-ESRY537N-682 (generated by CRISPR/Cas9 gene editing of ESr1 gene in MCF7 cells, clone #682) in DMEM media supplemented with 10% FBS, and 1% penicillin/streptomycin antibiotics at a density of 1000 cells per well. Incubate the plates at 37° C. and 5% CO2. The following day dose the cells with the test compound. Use an Echo 555 acoustic dispenser to prepare test compound serial dilutions (1:3) in a range from 60 μM to 0.003 μM. Dose the cells with the addition of 5 μL from the serial dilution plate to the cell plate, producing a final DMSO concentration of 0.2% with a final test compound concentration dose range between 20 and 0.001 μM. For the maximum point use media containing 0.2% of DMSO and for the minimum point use fulvestrant diluted at 2 μM final concentrations in the growth media containing 0.2% DMSO. After dosing with the test compound, incubate the cell plates at 37° C. and 5% CO2. Seven days after test compound addition, remove the plates from the incubator and add cold EtOH 96% (65 μL) to each well. […] Seal the plates and incubate 1 hour at room temperature on the bench (preserved from light). Scan the plates with ACUMEN EXPLORER™ [Laser-scanning fluorescence microplate cytometer manufactured by TTP LABTECH LTD].

MCF7 ESR1 wild type = assay: Cell proliferation assay in MCF7; format: cell-based, human; conditions: seven days, read-out: Relative IC50 (μM) MCF7 ESR1 wild type
Experimental: as §2

Sequence of ERα (Y537S mutant) (P03372 whole entry Y537S): as the sequence (P03372 whole entry) above, with Y537S counted along it

Structure (SMILES)	Ki (ERα (Y537S mutant))	Ki (ERα (wild type))	IC50 ([1]; Homo sapiens, MCF7, […])	IC50 (MCF7 ESR1 wild type; Homo sapiens, MCF7, […])	IC50 [1]	IC50 (MCF7 ESR1 wild type)
Oc1ccc2c3c(cnc2c1)-c1cccc(C(F)(F)F)c1OC3c1ccc(OCCN2CC(CF)C2)cc1 (racemic) [Example 2, 5-(4-{2-[3-(fluoromethyl)azetidin-1-yl]ethoxy}phenyl)-7-(trifluoromethyl)-5H-[1]benzopyrano[4,3-c]quinolin-2-ol]	6.78 nM	2.17 nM	0.0511 µM	0.00425 µM	–	–
Oc1ccc2c3c(cnc2c1)-c1cccc(Cl)c1OC3c1ccc(OCCN2CC(CF)C2)cc1 (racemic) [Example 4, 7-chloro-5-(4-{2-[3-(fluoromethyl)azetidin-1-yl]ethoxy}phenyl)-5H-[1]benzopyrano[4,3-c]quinolin-2-ol]	12.1 nM	0.64 nM	0.0266 µM	0.0286 µM	–	–
Oc1ccc2c3c(cnc2c1)-c1ccc(F)cc1OC3c1ccc(OCCN2CC(CF)C2)cc1 (racemic) [Example 5, 8-fluoro-5-(4-{2-[3-(fluoromethyl)azetidin-1-yl]ethoxy}phenyl)-5H-[1]benzopyrano[4,3-c]quinolin-2-ol]	19.5 nM	2.82 nM	0.0725 ± 0.0263 µM	0.0801 µM	–	–
Oc1ccc2c3c(cnc2c1)-c1cccc(F)c1OC3c1ccc(OCCN2CC(CF)C2)cc1 (racemic) [Example 6, 7-fluoro-5-(4-{2-[3-(fluoromethyl)azetidin-1-yl]ethoxy}phenyl)-5H-[1]benzopyrano[4,3-c]quinolin-2-ol]	15.8 nM	4.14 nM	0.0236 µM	0.0513 µM	–	–
Cc1ccc2c(c1)OC(c1ccc(OCCN3CC(CF)C3)cc1)c1c-2cnc2cc(O)ccc12 (racemic) [Example 7, 5-(4-{2-[3-(fluoromethyl)azetidin-1-yl]ethoxy}phenyl)-8-methyl-5H-[1]benzopyrano[4,3-c]quinolin-2-ol]	8.55 nM	1.55 nM	0.0448 ± 0.0119 µM	0.019 µM	–	–
Cc1cccc2c1OC(c1ccc(OCCN3CC(CF)C3)cc1)c1c-2cnc2cc(O)ccc12 (racemic) [Example 8, 5-(4-{2-[3-(fluoromethyl)azetidin-1-yl]ethoxy}phenyl)-7-methyl-5H-[1]benzopyrano[4,3-c]quinolin-2-ol]	11.4 nM	3.2 nM	0.0329 ± 0.003 µM	0.0416 µM	–	–
Oc1ccc2c3c(cnc2c1)-c1cccc(C(F)(F)F)c1OC3c1ccc(OCCN2CC(CF)C2)cc1 (single isomer, unassigned) [Example 2A, 5-(4-{2-[3-(Fluoromethyl)azetidin-1-yl]ethoxy}phenyl)-7-(trifluoromethyl)-5H-[1]benzopyrano[4,3-c]quinolin-2-ol]	7.92 nM	0.65 nM	–	–	0.0428 ± 0.00267 µM	0.00612 µM
Oc1ccc2c3c(cnc2c1)-c1cccc(C(F)(F)F)c1OC3c1ccc(OCCN2CC(CF)C2)cc1 (single isomer, unassigned) [Example 2B, 5-(4-{2-[3-(Fluoromethyl)azetidin-1-yl]ethoxy}phenyl)-7-(trifluoromethyl)-5H-[1]benzopyrano[4,3-c]quinolin-2-ol]	294 nM	60.4 nM	–	–	0.778 µM	0.405 µM
Oc1ccc2c3c(cnc2c1)-c1cccc(Cl)c1OC3c1ccc(OCCN2CC(CF)C2)cc1 (single isomer, unassigned) [Example 4A, 7-Chloro-5-(4-{2-[3-(fluoromethyl)azetidin-1-yl]ethoxy}phenyl)-5H-[1]benzopyrano[4,3-c]quinolin-2-ol]	55 nM	16.8 nM	–	–	0.544 ± 0.218 µM	0.286 µM
Oc1ccc2c3c(cnc2c1)-c1cccc(Cl)c1OC3c1ccc(OCCN2CC(CF)C2)cc1 (single isomer, unassigned) [Example 4B, 7-Chloro-5-(4-{2-[3-(fluoromethyl)azetidin-1-yl]ethoxy}phenyl)-5H-[1]benzopyrano[4,3-c]quinolin-2-ol]	2.34 nM	0.34 nM	–	–	0.0143 ± 0.00492 µM	0.0035 µM
Oc1ccc2c3c(cnc2c1)-c1ccc(F)cc1OC3c1ccc(OCCN2CC(CF)C2)cc1 (single isomer, unassigned) [Example 5A, 8-Fluoro-5-(4-{2-[3-(fluoromethyl)azetidin-1-yl]ethoxy}phenyl)-5H-[1]benzopyrano[4,3-c]quinolin-2-ol]	81.2 nM	12.5 nM	–	–	0.517 ± 0.095 µM	0.41 µM
Oc1ccc2c3c(cnc2c1)-c1ccc(F)cc1OC3c1ccc(OCCN2CC(CF)C2)cc1 (single isomer, unassigned) [Example 5B, 8-Fluoro-5-(4-{2-[3-(fluoromethyl)azetidin-1-yl]ethoxy}phenyl)-5H-[1]benzopyrano[4,3-c]quinolin-2-ol]	6.56 nM	1.3 nM	–	–	0.0213 ± 0.013 µM	0.00767 µM

Next, values leading:

Ki (ERα (Y537S mutant))	Ki (ERα (wild type))	IC50 ([1]; Homo sapiens, MCF7, […])	IC50 (MCF7 ESR1 wild type; Homo sapiens, MCF7, […])	IC50 [1]	IC50 (MCF7 ESR1 wild type)	Structure (SMILES)
46 nM	8.53 nM	–	0.0759 µM	0.323 ± 0.176 µM	–	Oc1ccc2c3c(cnc2c1)-c1cccc(F)c1OC3c1ccc(OCCN2CC(CF)C2)cc1 (single isomer, unassigned) [Example 6A, 7-Fluoro-5-(4-{2-[3-(fluoromethyl)azetidin-1-yl]ethoxy}phenyl)-5H-[1]benzopyrano[4,3-c]quinolin-2-ol]
5.71 nM	1.13 nM	–	–	0.0154 µM	–	Oc1ccc2c3c(cnc2c1)-c1cccc(F)c1OC3c1ccc(OCCN2CC(CF)C2)cc1 (single isomer, unassigned) [Example 6B, 7-Fluoro-5-(4-{2-[3-(fluoromethyl)azetidin-1-yl]ethoxy}phenyl)-5H-[1]benzopyrano[4,3-c]quinolin-2-ol]
66.9 nM	9.33 nM	–	–	0.662 ± 0.117 µM	0.174 µM	Cc1cccc2c1OC(c1ccc(OCCN3CC(CF)C3)cc1)c1c-2cnc2cc(O)ccc12 (single isomer, unassigned) [Example 8A, 5-(4-{2-[3-(Fluoromethyl)azetidin-1-yl]ethoxy}phenyl)-7-methyl-5H-[1]benzopyrano[4,3-c]quinolin-2-ol]
5.44 nM	0.94 nM	–	–	0.0142 ± 0.0111 µM	0.00508 µM	Cc1cccc2c1OC(c1ccc(OCCN3CC(CF)C3)cc1)c1c-2cnc2cc(O)ccc12 (single isomer, unassigned) [Example 8B, 5-(4-{2-[3-(Fluoromethyl)azetidin-1-yl]ethoxy}phenyl)-7-methyl-5H-[1]benzopyrano[4,3-c]quinolin-2-ol]
